Our source for the Ki and IC50 values is US11155557B2, “Pyrazolopyrimidine compounds and methods of use thereof” (Genentech, Inc., priority 2016, dated 2021).

Like-named read-outs stand apart in the source and are kept apart here.

A word on the Ki: it is a measure of affinity in units of concentration, obtained from inhibition or displacement. As a reminder, the IC50 is the point on the concentration scale where inhibition reaches its midpoint.

Experiment [1] has as its target isolated recombinant JAK2 kinase domain (Homo sapiens (Human), UniProt O60674). As to the kind of experiment: JAK2 enzyme assay (Caliper LabChip, Ki). Particulars: read-out: JAK2 Ki.
In experiment [2] the test system is JAK1-dependent STAT6 phosphorylation in BEAS-2B human bronchial epithelial cells. As to the kind of experiment: JAK1 pathway assay: IL-13 stimulated STAT6 phosphorylation in BEAS-2B cells. To be noted: BEAS-2B cells, IL-13 stimulation, read-out: IL-13 p-STAT6 BEAS-2B IC50. Format: cell-based. The procedure: JAK1 Pathway Assay in Cell Lines was Carried Out as Follows:
Inhibitor potency (EC50) was determined in cell-based assays designed to measure JAK1 dependent STAT phosphorylation.
In one assay approach, TF-1 human erythroleukemia cells obtained from the American Type Culture Collection (ATCC; Manassas, Va.) were used to measure JAK1-dependent STAT6 phosphorylation downstream of IL-13 stimulation. Prior to use in the assays, TF-1 cells were starved of GM-CSF overnight in OptiMEM medium (Life Technologies, Grand Island, N.Y.) supplemented with 0.5% charcoal/dextran stripped fetal bovine serum (FBS), 0.1 mM non-essential amino acids (NEAA), and 1 mM sodium pyruvate. The assays were run in 384-well plates in serum-free OptiMEM medium using 300,000 cells per well. In a second assay approach, BEAS-2B human bronchial epithelial cells obtained from ATCC were plated at 100,000 cells per well of a 96-well plate one day prior to the experiment. The BEAS-2B assay was run in complete growth medium (bronchial epithelial basal medium plus bulletkit; Lonza; Basel, Switzerland).
Test compounds were serially diluted 1:2 in DMSO and then diluted 1:50 in medium just before use. Diluted compounds were added to the cells, for a final DMSO concentration of 0.2%, and incubated for 30 min (for the TF-1 assay) or 1 hr (for the BEAS-2B assay) at 37° C. Then, cells were stimulated with human recombinant cytokine at their respective EC90 concentrations, as previously determined for each individual lot. Cells were stimulated with IL-13 (R&D Systems, Minneapolis, Minn.) for 15 min at 37° C. […] The resultant samples were frozen in the plates at −80° C. Compound mediated inhibition of STAT6 phosphorylation was measured in the cell lysates using MesoScale Discovery (MSD) technology (Gaithersburg, Md.).

Experiment [3] addresses isolated recombinant JAK1 kinase domain (Homo sapiens (Human), UniProt P23458). The experiment is described as follows: JAK1 enzyme assay (Caliper LabChip, Ki). Format: biochemical. The procedure:
The activity of the isolated recombinant JAK1 and JAK2 kinase domain was measured by monitoring phosphorylation of a peptide derived from JAK3 ([…] fluorescently labeled on the N-terminus with 5-carboxyfluorescein) using the Caliper LabChip R technology (Caliper Life Sciences, Hopkinton, Mass.).

Chain of isolated recombinant JAK2 kinase domain (O60674 849-1124): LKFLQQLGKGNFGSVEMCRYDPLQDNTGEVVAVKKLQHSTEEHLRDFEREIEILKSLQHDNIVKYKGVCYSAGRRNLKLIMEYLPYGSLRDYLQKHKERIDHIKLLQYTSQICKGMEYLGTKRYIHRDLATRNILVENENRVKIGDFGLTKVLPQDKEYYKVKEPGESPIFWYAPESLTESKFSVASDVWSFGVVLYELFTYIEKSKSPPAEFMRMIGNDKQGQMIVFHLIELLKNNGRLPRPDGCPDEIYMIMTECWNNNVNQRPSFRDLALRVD
Chain of isolated recombinant JAK1 kinase domain (P23458 875-1153): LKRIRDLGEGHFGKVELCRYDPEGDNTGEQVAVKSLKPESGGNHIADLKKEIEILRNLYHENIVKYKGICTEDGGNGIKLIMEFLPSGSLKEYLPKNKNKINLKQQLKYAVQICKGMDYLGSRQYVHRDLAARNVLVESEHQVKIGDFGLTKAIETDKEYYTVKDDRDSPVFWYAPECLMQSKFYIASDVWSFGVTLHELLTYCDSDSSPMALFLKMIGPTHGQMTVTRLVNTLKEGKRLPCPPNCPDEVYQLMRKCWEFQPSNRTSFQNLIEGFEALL

For the compound `O=C(Nc1cn(C2CCCNC2)nc1-c1cc2ccccc2cc1OC(F)F)c1cnn2cccnc12` (racemic) [Example 5, N-(3-(3-(difluoromethoxy)naphthalen-2-yl)-1-(piperidin-3-yl)-1H-pyrazol-4-yl)pyrazolo[1,5-a]pyrimidine-3-carboxamide], the figures for the inhibition constant (Ki) in experiment [1] and in experiment [3] were 0.78 nM and 1.21 nM, respectively. Further, in experiment [2] (Homo sapiens, BEAS-2B), the IC50 was determined as 31 nM.

As for `O=C(Nc1c[nH]nc1-c1cc2c(cc1OC(F)F)CC(CO)O2)c1cnn2cccnc12` (racemic) [Example 15, N-(3-(5-(difluoromethoxy)-2-(hydroxymethyl)-2,3-dihydrobenzofuran-6-yl)-1H-pyrazol-4-yl)pyrazolo[1,5-a]pyrimidine-3-carboxamide], the results for the Ki in experiment [1] and in experiment [3] were 0.24 nM and 0.69 nM, respectively. In experiment [2] (Homo sapiens, BEAS-2B), the IC50 was determined as 143 nM.

`NCC1CNc2cc(OC(F)F)c(-c3n[nH]cc3NC(=O)c3cnn4cccnc34)cc2S1` (racemic) [Example 38, N-[3-[2-(aminomethyl)-6-(difluoromethoxy)-3,4-dihydro-2H-1,4-benzothiazin-7-yl]-1H-pyrazol-4-yl]pyrazolo[1,5-a]pyrimidine-3-carboxamide]: the Ki in experiment [1] was found to be 0.29 nM; in experiment [3], 0.33 nM. Besides, in experiment [2] (Homo sapiens, BEAS-2B), the IC50 was more than 1000 nM.

Turning to `CC1CSc2cc(-c3n[nH]cc3NC(=O)c3cnn4cccnc34)c(OC(F)F)cc2N1` (racemic) [Example 41, N-[3-[6-(difluoromethoxy)-3-methyl-3,4-dihydro-2H-1,4-benzothiazin-7-yl]-1H-pyrazol-4-yl]pyrazolo[1,5-a]pyrimidine-3-carboxamide], the Ki in experiment [1] worked out at 0.06 nM; in experiment [3] it was 0.08 nM. In experiment [2] (Homo sapiens, BEAS-2B), the IC50 was determined as 4 nM.

Turning to `CN1CCCC(n2cc(NC(=O)c3cnn4cccnc34)c(-c3cc4cn[nH]c4cc3OC(F)F)n2)C1` (racemic) [Example 74, N-[3-[6-(difluoromethoxy)-1H-indazol-5-yl]-1-(1-methyl-3-piperidyl)pyrazol-4-yl]pyrazolo[1,5-a]pyrimidine-3-carboxamide], the Ki worked out at 0.98 nM in experiment [1] and 1.63 nM in experiment [3]. Further, the IC50 in experiment [2] (Homo sapiens, BEAS-2B) stood at 18 nM.

Take `CN1CCCC1Cn1cc(NC(=O)c2cnn3cccnc23)c(-c2cc3cn[nH]c3cc2OC(F)F)n1` (racemic) [Example 75, N-[3-[6-(difluoromethoxy)-1H-indazol-5-yl]-1-[(1-methylpyrrolidin-2-yl)methyl]pyrazol-4-yl]pyrazolo[1,5-a]pyrimidine-3-carboxamide]: the Ki turned out to be 0.26 nM in experiment [1] and 0.31 nM in experiment [3]. Further, the IC50 in experiment [2] (Homo sapiens, BEAS-2B) amounted to 11 nM.

On to `CC1CNc2cc(OC(F)F)c(-c3nn(CCN)cc3NC(=O)c3cnn4cccnc34)cc2S1` (racemic) [Example 80, N-[1-(2-aminoethyl)-3-[6-(difluoromethoxy)-2-methyl-3,4-dihydro-2H-1,4-benzothiazin-7-yl]pyrazol-4-yl]pyrazolo[1,5-a]pyrimidine-3-carboxamide], for which the Ki amounted to 0.17 nM in experiment [1] and 0.16 nM in experiment [3]. Also, in experiment [2] (Homo sapiens, BEAS-2B), the IC50 came to 13 nM.

With `CC1CNc2cc(OC(F)F)c(-c3n[nH]cc3NC(=O)c3cnn4cccnc34)cc2S1` (single isomer, unassigned) [Example 93, N-[3-[6-(difluoromethoxy)-2-methyl-3,4-dihydro-2H-1,4-benzothiazin-7-yl]-1H-pyrazol-4-yl]pyrazolo[1,5-a]pyrimidine-3-carboxamide], the Ki in experiment [1] was found to be 0.03 nM; in experiment [3], 0.07 nM. In addition, the IC50 in experiment [2] (Homo sapiens, BEAS-2B) is 6 nM.

Take `CC1Sc2cc(-c3n[nH]cc3NC(=O)c3cnn4cccnc34)c(OC(F)F)cc2NC1=O` (single isomer, unassigned) [Example 95, N-[3-[6-(difluoromethoxy)-2-methyl-3-oxo-4H-1,4-benzothiazin-7-yl]-1H-pyrazol-4-yl]pyrazolo[1,5-a]pyrimidine-3-carboxamide]: the Ki was 0.03 nM in experiment [1] and 0.06 nM in experiment [3]. Moreover, the IC50 in experiment [2] (Homo sapiens, BEAS-2B) was determined as 60 nM.

Take `CC1Sc2cc(-c3n[nH]cc3NC(=O)c3cnn4cccnc34)c(OC(F)F)cc2NC1=O` (single isomer, unassigned) [Example 96, N-[3-[6-(difluoromethoxy)-2-methyl-3-oxo-4H-1,4-benzothiazin-7-yl]-1H-pyrazol-4-yl]pyrazolo[1,5-a]pyrimidine-3-carboxamide]: the values for the Ki in experiment [1] and in experiment [3] were 0.05 nM and 0.07 nM, respectively. The IC50 in experiment [2] was 70 nM.

As for `CC1Sc2cc(-c3nn(C)cc3NC(=O)c3cnn4cccnc34)c(OC(F)F)cc2NC1=O` (single isomer, unassigned) [Example 97, N-[3-[6-(difluoromethoxy)-2-methyl-3-oxo-4H-1,4-benzothiazin-7-yl]-1-methyl-pyrazol-4-yl]pyrazolo[1,5-a]pyrimidine-3-carboxamide], the Ki in experiment [1] was determined as 0.09 nM; in experiment [3] it was 0.13 nM. For the same compound, in experiment [2] (Homo sapiens, BEAS-2B), the IC50 amounted to 7 nM.

As to `CC1Sc2cc(-c3nn(C)cc3NC(=O)c3cnn4cccnc34)c(OC(F)F)cc2NC1=O` (single isomer, unassigned) [Example 98, N-[3-[6-(difluoromethoxy)-2-methyl-3-oxo-4H-1,4-benzothiazin-7-yl]-1-methyl-pyrazol-4-yl]pyrazolo[1,5-a]pyrimidine-3-carboxamide], the Ki in experiment [1] came out at 0.07 nM; in experiment [3], 0.11 nM. Also, in experiment [2], the IC50 turned out to be 6 nM.

Turning to `CC1CNc2cc(OC(F)F)c(-c3nn(CC(=O)N4CCCCC4)cc3NC(=O)c3cnn4cccnc34)cc2S1` (single isomer, unassigned) [Example 101, N-[3-[6-(difluoromethoxy)-2-methyl-3,4-dihydro-2H-1,4-benzothiazin-7-yl]-1-[2-oxo-2-(1-piperidyl)ethyl]pyrazol-4-yl]pyrazolo[1,5-a]pyrimidine-3-carboxamide], the Ki in experiment [1] was 0.16 nM; in experiment [3], 0.23 nM. The half-inhibitory concentration (IC50) in experiment [2] (Homo sapiens, BEAS-2B) turned out to be 13 nM.

`CC1CNc2cc(OC(F)F)c(-c3nn(CC(=O)N4CCCCC4)cc3NC(=O)c3cnn4cccnc34)cc2S1` (single isomer, unassigned) [Example 102, N-[3-[6-(difluoromethoxy)-2-methyl-3,4-dihydro-2H-1,4-benzothiazin-7-yl]-1-[2-oxo-2-(1-piperidyl)ethyl]pyrazol-4-yl]pyrazolo[1,5-a]pyrimidine-3-carboxamide]: the Ki in experiment [1] is 0.19 nM; in experiment [3], 0.2 nM. The IC50 in experiment [2] was determined as 12 nM.

`CC1CNc2cc(OC(F)F)c(-c3nn(CC(=O)N4CC=CCC4)cc3NC(=O)c3cnn4cccnc34)cc2S1` (single isomer, unassigned) [Example 103, N-[3-[6-(difluoromethoxy)-2-methyl-3,4-dihydro-2H-1,4-benzothiazin-7-yl]-1-[2-(3,6-dihydro-2H-pyridin-1-yl)-2-oxo-ethyl]pyrazol-4-yl]pyrazolo[1,5-a]pyrimidine-3-carboxamide]: the Ki in experiment [1] stood at 0.14 nM; in experiment [3], 0.2 nM. Moreover, in experiment [2] (Homo sapiens, BEAS-2B), the IC50 is 12 nM.

Take `CC1CNc2cc(OC(F)F)c(-c3nn(CC(=O)N4CC=CCC4)cc3NC(=O)c3cnn4cccnc34)cc2S1` (single isomer, unassigned) [Example 104, N-[3-[6-(difluoromethoxy)-2-methyl-3,4-dihydro-2H-1,4-benzothiazin-7-yl]-1-[2-(3,6-dihydro-2H-pyridin-1-yl)-2-oxo-ethyl]pyrazol-4-yl]pyrazolo[1,5-a]pyrimidine-3-carboxamide]: the figures for the Ki in experiment [1] and in experiment [3] were 0.16 nM and 0.15 nM, respectively. Also, in experiment [2], the IC50 was found to be 11 nM.

On to `O=C(O)Cn1cc(NC(=O)c2cnn3cccnc23)c(-c2cc3ccccc3cc2OC(F)F)n1` [Example 2, 2-(3-(3-(difluoromethoxy)naphthalen-2-yl)-4-(pyrazolo[1,5-a]pyrimidine-3-carboxamido)-1H-pyrazol-1-yl)acetic acid], for which, in experiment [2] (Homo sapiens, BEAS-2B), the concentration for half-maximal inhibition (IC50) was determined as 128 nM. Besides, the inhibition constant (Ki) in experiment [3] is 0.64 nM.

As for `CC(C)(C)OC(=O)N1CCC(C(=O)Cn2ncc3cc(-c4n[nH]cc4NC(=O)c4cnn5cccnc45)c(OC(F)F)cc32)CC1` [Example 18, tert-butyl 4-(2-(6-(difluoromethoxy)-5-(4-(pyrazolo[1,5-a]pyrimidine-3-carboxamido)-1H-pyrazol-3-yl)-1H-indazol-1-yl)acetyl)piperidine-1-carboxylate], the Ki turned out to be 2.59 nM in experiment [1] and 8.02 nM in experiment [3].

As to `COc1cc2sc(C(N)=O)cc2cc1-c1n[nH]cc1NC(=O)c1cnn2cccnc12` [Example 23, N-(3-(2-carbamoyl-6-methoxybenzo[b]thiophen-5-yl)-1H-pyrazol-4-yl)pyrazolo[1,5-a]pyrimidine-3-carboxamide], the Ki was determined as 6.01 nM in experiment [1] and 9.27 nM in experiment [3].
